Laboratory results as given in US20150290200A1, “INTRACELLULAR KINASE INHIBITORS” (Pharmacyclics Inc., priority 2006, published 2015).
Like-named read-outs stand apart in the source and are kept apart here. Values belong to the compound of their own block, whether it stands above or below them.

Columns and labels:
[1] = target: T1, ITK kinase domain (Homo sapiens, UniProt Q08881); assay: In vitro kinase assay (HITHUNTER enzyme fragment complementation), ITK; assay type: biochemical
T1 construct: N-terminally His-tagged ITK kinase domain (amino acids 352-617); His (N); made in house
T1 sequence (Q08881 352-617): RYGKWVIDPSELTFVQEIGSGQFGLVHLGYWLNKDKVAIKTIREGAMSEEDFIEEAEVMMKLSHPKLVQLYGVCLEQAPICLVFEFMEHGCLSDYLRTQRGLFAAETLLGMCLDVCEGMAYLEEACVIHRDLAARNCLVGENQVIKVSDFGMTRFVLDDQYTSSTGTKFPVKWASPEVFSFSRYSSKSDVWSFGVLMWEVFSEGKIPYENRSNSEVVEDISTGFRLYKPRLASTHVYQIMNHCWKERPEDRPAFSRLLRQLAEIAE
Protocol: Compounds were screened using the HITHUNTER™ enzyme fragment complementation method (Discoverx). Briefly, a recombinantly produced, N-terminally His-tagged ITK kinase domain (amino acids 352-617) was incubated with various concentrations of individual compounds. ATP and substrate were added, and the kinase reaction was allowed to proceed for 2-16 hours. Commercially available detection reagents were added and allowed to react for 2-4 hours. The reaction was evaluated by luminescence. Initial results were confirmed using full-length recombinant ITK protein.
In order to confirm the mechanism by which compounds depicted herein interact with the kinase domain of Tec and EGFR kinases, we created a point mutant of the ITK kinase domain, whereby the key amino acid, namely C442 was mutated to alanine. The protein was expressed in a commercial baculovirus expression system using the manufacturer's general protocol (Invitrogen, pBlueBac). Protein was expressed and purified using standard techniques. […] While the activity of WT-ITK was inhibited by compounds depicted in this application, the same compounds had no activity towards the C442A mutant kinase domain.

[2] = target: T2, BTK kinase domain (Homo sapiens, UniProt Q06187); assay: In vitro kinase assay (HITHUNTER), BTK; assay type: biochemical
T2 construct: The kinase domains of BTK, LCK and ERK were expressed as recombinant purified proteins; made in house
Text: Similarly, commercially available reagents such as HITHUNTER™ were used to evaluate the effect of compounds on the activity of additional kinases. The kinase domains of BTK, LCK and ERK were expressed as recombinant purified proteins were used for these studies.

[3] = Table 3, Compound, read-out: IC50 ITK
[4] = Table 3, naphthyl analog, read-out: IC50 ITK

T2 sequence (Q06187 402-655 limits assumed): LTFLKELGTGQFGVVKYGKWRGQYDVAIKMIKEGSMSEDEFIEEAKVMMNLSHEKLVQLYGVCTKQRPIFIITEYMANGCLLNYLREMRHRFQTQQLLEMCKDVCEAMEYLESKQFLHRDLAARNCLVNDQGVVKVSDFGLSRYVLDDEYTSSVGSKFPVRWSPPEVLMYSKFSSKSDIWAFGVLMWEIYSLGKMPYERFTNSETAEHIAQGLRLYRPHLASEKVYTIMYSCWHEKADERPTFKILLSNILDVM

IC50 ([1]; Table 1, ITK, read-out: IC50): 25.8 nM
Structure (SMILES): CN(CCC(=O)c1ccc2ccccc2c1)Cc1ccccc1 [drawing 107]

IC50 ([1]; Table 1, ITK, read-out: IC50): 50.4 nM
Structure (SMILES): CN1CCN(CCC(=O)c2ccc3ccccc3c2)CC1 [drawing 110]

IC50 ([1]; Table 1, ITK, read-out: IC50): 28.6 nM
Structure (SMILES): O=C(CCN1Cc2ccccc2C1)c1ccc2ccccc2c1 [drawing 114]

IC50 ([1]; Table 1, ITK, read-out: IC50): 18.3 nM
Structure (SMILES): O=C(CCN1CCc2ccccc2C1)c1ccc2ccccc2c1 [drawing 115]

IC50 ([1]; Table 1, ITK, read-out: IC50): 0.85 nM
Structure (SMILES): COc1cc2c(cc1OC)CN(CCC(=O)c1ccc3ccccc3c1)CC2 [drawing 116]

IC50 [1, 4]: 7 nM
IC50 ([2]; Table 3, naphthyl analog): 12.8 nM
Structure (SMILES): COc1cc2c(cc1OC)CN(CCC(=O)c1ccc3ccccc3c1)CC2 [drawing 169]

IC50 ([1]; Table 4, read-out: IC50 ITK): 92.8 nM
Structure (SMILES): O=C(CCN1CCC(Cc2ccccc2)CC1)c1ccc2ccccc2c1 [drawing 182]

IC50 ([1]; Table 4, read-out: IC50 ITK): 74.9 nM
Structure (SMILES): O=C(CCN1CCCC1)c1ccc2ccccc2c1 [drawing 184]

IC50 ([1]; Table 5, read-out: IC50 ITK): 137 nM
IC50 ([2]; Table 5): 8220 nM
Structure (SMILES): O=C(CCN1CCCC1)c1ccc2ccccc2c1 [drawing 201]

IC50 ([1]; Table 5, read-out: IC50 ITK): 16.9 nM
Structure (SMILES): CN(CCC(=O)c1ccc2ccccc2c1)Cc1ccccc1 [drawing 203]

IC50 ([1]; Table 5, read-out: IC50 ITK): 60.2 nM
IC50 ([2]; Table 5): 128 nM
Structure (SMILES): O=C(CCN1CCC(Cc2ccccc2)CC1)c1ccc2ccccc2c1 [drawing 204]

IC50 ([1]; Table 5, read-out: IC50 ITK): 14.8 nM
Structure (SMILES): O=C(CCN1CCN(c2ccccn2)CC1)c1ccc2ccccc2c1 [drawing 205]

IC50 ([1]; Table 5, read-out: IC50 ITK): 30.9 nM
Structure (SMILES): CN1CCN(CCC(=O)c2ccc3ccccc3c2)CC1 [drawing 208]

IC50 ([1]; Table 5, read-out: IC50 ITK): 21.2 nM
Structure (SMILES): O=C(CCN1CCc2ccccc2C1)c1ccc2ccccc2c1 [drawing 209]

IC50 ([1]; Table 5, read-out: IC50 ITK): 24.2 nM
Structure (SMILES): O=C(CCN1CCN(c2ccccn2)CC1)c1ccc2ccccc2c1 [drawing 211]

IC50 ([1]; Table 5, read-out: IC50 ITK): 16.2 nM
Structure (SMILES): O=C(CCN1Cc2ccccc2C1)c1ccc2ccccc2c1 [drawing 217]

IC50 ([1]; Table 7, elimination mechanism, read-out: IC50 ITK): 44.6 nM
Structure (SMILES): O=C(CCN1CCOCC1)c1ccc2ccccc2c1 [drawing 254]

More lines, now with the values behind:

Structure (SMILES): O=C(CCN1CCC(C(=O)c2ccncc2)CC1)c1ccc2ccccc2c1
IC50 ([1]; Table 5, read-out: IC50 ITK): 284 nM
IC50 ([2]; Table 5): 486 nM

Structure (SMILES): O=C(CCN1CCC(CNC(=O)C(F)(F)F)CC1)c1ccc2ccccc2c1
IC50 ([1]; Table 5, read-out: IC50 ITK): 217 nM
IC50 ([2]; Table 5): 266 nM

Structure (SMILES): O=C(CCNCC1CCNCC1)c1ccc2ccccc2c1
IC50 ([1]; Table 5, read-out: IC50 ITK): 163 nM
IC50 ([2]; Table 5): 100 nM

Structure (SMILES): O=C(CCNCC1CCN(C(=O)c2ccncc2)CC1)c1ccc2ccccc2c1
IC50 ([1]; Table 5, read-out: IC50 ITK): 36 nM
IC50 ([2]; Table 5): 4 nM

Structure (SMILES): CN(C)C(=O)N1CCC(CNCCC(=O)c2ccc3ccccc3c2)CC1
IC50 ([1]; Table 5, read-out: IC50 ITK): 737 nM
IC50 ([2]; Table 5): 373 nM

Structure (SMILES): OC(CCN1CCOCC1)c1ccc2ccccc2c1 (centres unmarked)
IC50 ITK ([1]; Table 7, elimination mechanism): no IC50

Structure (SMILES): CC(C)(CN1CCCCC1)C(=O)c1ccc2ccccc2c1
IC50 ITK ([1]; Table 7, elimination mechanism): no IC50

Structure (SMILES): CC(C)N(CCC(=O)c1ccc2ccccc2c1)C(C)C [drawing 104]
IC50 ([1]; Table 1, ITK, read-out: IC50): 18.1 nM

Structure (SMILES): O=C(CCN1CCN(CC2CCCCC2)CC1)c1ccc2ccccc2c1 [drawing 111]
IC50 ([1]; Table 1, ITK, read-out: IC50): 11.4 nM

Structure (SMILES): O=C(CCN1CCOCC1)c1ccc2ccccc2c1 [drawing 117]
IC50 ([1]; Table 1, ITK, read-out: IC50): 71.9 nM

Structure (SMILES): CN(CCC(=O)c1ccc2ccccc2c1)Cc1ccco1 [drawing 118]
IC50 ([1]; Table 1, ITK, read-out: IC50): 19.6 nM

Structure (SMILES): O=C1COc2ccc(C(=O)CCN3CCOCC3)cc2N1 [drawing 166]
IC50 [1, 3]: 5.9 nM
IC50 ([2]; Table 3, Compound): 781 nM

Structure (SMILES): O=C(CCN1CCOCC1)c1ccc2ccccc2c1 [drawing 167]
IC50 [1, 4]: 20 nM
IC50 ([2]; Table 3, naphthyl analog): 39.5 nM

Structure (SMILES): COc1cc2c(cc1OC)CN(CCC(=O)c1ccc3c(c1)NC(=O)CO3)CC2 [drawing 168]
IC50 [1, 3]: 30 nM
IC50 ([2]; Table 3, Compound): 276 nM

Structure (SMILES): CN(C)C1CCN(CCC(=O)c2ccc3ccccc3c2)C1 (centres unmarked) [drawing 171]
IC50 [1, 4]: 7 nM
IC50 ([2]; Table 3, naphthyl analog): 2.15 nM

Structure (SMILES): CN(C)C1CCN(CCC(=O)c2ccc3ccccc3c2)CC1 [drawing 177]
IC50 [1, 4]: 9 nM
IC50 ([2]; Table 3, naphthyl analog): 6.54 nM

Structure (SMILES): CC(C)N(CCC(=O)c1ccc2ccccc2c1)C(C)C [drawing 179]
IC50 [1, 4]: 9 nM
IC50 ([2]; Table 3, naphthyl analog): 0.72 nM

Structure (SMILES): O=C(CCN1CCOCC1)c1ccc2ccccc2c1 [drawing 185]
IC50 ([1]; Table 4, read-out: IC50 ITK): 20 nM
IC50 ([2]; Table 4): 39 nM

Structure (SMILES): O=C(CCN1CCOCC1)c1cc2ccccc2cn1 [drawing 187]
IC50 ([1]; Table 4, read-out: IC50 ITK): 1680 nM
IC50 BTK ([2]; Table 4): no IC50

Structure (SMILES): O=C(CCN1CCOCC1)c1ccc2occc2c1 [drawing 192]
IC50 ([1]; Table 4, read-out: IC50 ITK): 75 nM
IC50 ([2]; Table 4): 2040 nM

Structure (SMILES): NC(=O)c1ccc2cc(C(=O)CCN3CCOCC3)ccc2c1 [drawing 198]
IC50 ([1]; Table 4, read-out: IC50 ITK): 5 nM
IC50 ([2]; Table 4): 1 nM

Structure (SMILES): O=C(CCN1CCOCC1)c1ccc2ccccc2c1 [drawing 200]
IC50 ([1]; Table 5, read-out: IC50 ITK): 20.5 nM
IC50 ([2]; Table 5): 39.5 nM

Structure (SMILES): CN(CCC(=O)c1ccc2ccccc2c1)Cc1ccco1 [drawing 215]
IC50 ([1]; Table 5, read-out: IC50 ITK): 18.7 nM

Structure (SMILES): CN(C)C1CCN(CCC(=O)c2ccc3ccccc3c2)CC1 [drawing 216]
IC50 ([1]; Table 5, read-out: IC50 ITK): 9.5 nM

Structure (SMILES): O=C(CCN1CCN(CC2CCCCC2)CC1)c1ccc2ccccc2c1 [drawing 219]
IC50 ([1]; Table 5, read-out: IC50 ITK): 14.7 nM

Structure (SMILES): CC(C)N(CCC(=O)c1ccc2ccccc2c1)C(C)C [drawing 220]
IC50 ([1]; Table 5, read-out: IC50 ITK): 9.2 nM
